# Experimental data from paper PMC2954514 (Molecular cancer therapeutics, 2010).
# “And” between values parts separate entries of the source, which are not always exact repeats. Equal entries are not always repeated. Where two headings read alike, the source gives them in different places.
# Key:
# [1] = test system: microtubules; settings: cited from earlier work
# [2] = test system: metastatic breast cancer; settings: Phase II, patients with metastatic breast cancer; cited from earlier work
# [3] = target: Bovine brain microtubule protein (MTP, tubulin and microtubule-associated proteins) (Bos taurus, UniProt Q6B856); experiment: Inhibition of microtubule polymerization; assay type: biochemical; settings: for reduction of microtubule polymer mass: 100 nmol/L compound
# Sequence of Bovine brain microtubule protein (MTP, tubulin and microtubule-associated proteins) (P81947 whole entry): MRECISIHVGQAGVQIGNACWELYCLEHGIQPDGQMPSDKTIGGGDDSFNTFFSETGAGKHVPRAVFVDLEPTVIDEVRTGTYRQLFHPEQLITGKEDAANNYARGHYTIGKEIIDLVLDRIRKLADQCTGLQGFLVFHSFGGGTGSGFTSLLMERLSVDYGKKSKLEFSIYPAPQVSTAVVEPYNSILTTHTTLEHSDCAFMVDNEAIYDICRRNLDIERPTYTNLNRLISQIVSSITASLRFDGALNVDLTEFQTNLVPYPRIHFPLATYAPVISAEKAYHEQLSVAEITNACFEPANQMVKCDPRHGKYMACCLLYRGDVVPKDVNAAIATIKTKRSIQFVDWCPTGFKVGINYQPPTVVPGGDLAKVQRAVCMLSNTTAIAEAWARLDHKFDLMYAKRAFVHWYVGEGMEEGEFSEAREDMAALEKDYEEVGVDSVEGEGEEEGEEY
# Sequence of Bovine brain microtubule protein (MTP, tubulin and microtubule-associated proteins) (Q6B856 whole entry): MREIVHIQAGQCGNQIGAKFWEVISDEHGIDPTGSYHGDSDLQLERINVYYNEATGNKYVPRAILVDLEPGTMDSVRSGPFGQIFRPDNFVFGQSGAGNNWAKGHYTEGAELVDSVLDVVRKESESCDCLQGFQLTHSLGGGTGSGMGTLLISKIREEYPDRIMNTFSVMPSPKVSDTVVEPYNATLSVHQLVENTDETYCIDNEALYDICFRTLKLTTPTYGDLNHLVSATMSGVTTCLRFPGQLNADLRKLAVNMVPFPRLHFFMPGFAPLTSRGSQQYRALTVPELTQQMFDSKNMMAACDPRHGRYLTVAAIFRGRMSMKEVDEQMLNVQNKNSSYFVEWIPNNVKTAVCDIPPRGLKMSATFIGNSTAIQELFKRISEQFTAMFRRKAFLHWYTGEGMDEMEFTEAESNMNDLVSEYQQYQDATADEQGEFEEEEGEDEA
# [4] = test system: Bovine brain microtubule protein (MTP); experiment: Electron microscopy of polymers formed; assay type: biochemical
# [5] = target: MAP-free bovine brain microtubules (Bos taurus, UniProt Q6B856); experiment: Microtubule dynamic instability at plus ends; assay type: biochemical; settings: for Dynamicity, Percent Change (suppression of dynamic instability): 0.1 μmol/L (100 nmol/L) compound vs control; for Dynamicity, Percent Change (suppression of dynamic instability) / Catastrophe Frequency, Percent Change / Growing Lengths, Percent Change / Percent Time Shortening, Percent Change / Rescue Frequency, Percent Change / Shortening Lengths, Percent Change / Shortening Rates, Percent Change / Growing Rates, Percent Change / Percent Time Growing, Percent Change: (−) decrease; for Catastrophe Frequency / Dynamicity / Percent Time Attenuated / Percent Time Growing / Percent Time Shortening / Rescue Frequency / Growing Lengths / Shortening Lengths / Shortening Rates / Growing Rates: 0.1 μmol/L compound; for Percent Time Attenuated (pause), Percent Change / Catastrophe Frequency, Percent Change / Growing Lengths, Percent Change / Percent Time Shortening, Percent Change / Rescue Frequency, Percent Change / Shortening Lengths, Percent Change / Shortening Rates, Percent Change / Growing Rates, Percent Change / Percent Time Growing, Percent Change: 0.1 μmol/L compound vs control; for Percent Time Attenuated (pause), Percent Change / Growing Rates, Percent Change / Percent Time Growing, Percent Change: (+) increase; for Growing Lengths / Shortening Lengths / Shortening Rates / Growing Rates: mean ± SEM; for Growing Rates: plus ends, steady state
# Sequence of MAP-free bovine brain microtubules (Q6B856 whole entry): as above
# Sequence of MAP-free bovine brain microtubules (P81947 whole entry partner): as the sequence (P81947 whole entry) above
# [6] = test system: microtubules; settings: cited from earlier work; remark: listed apart in the source
# [7] = target: soluble bovine brain tubulin (Bos taurus, UniProt Q6B856); experiment: Binding to soluble tubulin
# Sequence of soluble bovine brain tubulin (P81947 whole entry): as above
# Sequence of soluble bovine brain tubulin (Q6B856 whole entry): as the sequence (Q6B856 whole entry) above
# [8] = target: steady-state microtubules (MAP-rich); experiment: Binding of [3H]S-methyl DM1 to steady-state microtubules; set-up: species or system bovine
# [9] = target: rat brain tubulin; settings: read-out: KD for tubulin reported previously; cited from earlier work
# [10] = 20 μmol/L compound (maytansine: 4 μmol/L and 20 μmol/L)
Compound,polymer morphology by electron microscopy ([4]; 2 μmol/L compound),"polymer morphology by electron microscopy [4, 10]","Dynamicity, Percent Change (suppression of dynamic instability) [5]",Catastrophe Frequency [5],Dynamicity [5],Percent Time Attenuated [5],Percent Time Growing [5],Percent Time Shortening [5],Rescue Frequency [5],"Percent Time Attenuated (pause), Percent Change [5]","Catastrophe Frequency, Percent Change [5]","Growing Lengths, Percent Change [5]","Percent Time Shortening, Percent Change [5]","Rescue Frequency, Percent Change [5]","Shortening Lengths, Percent Change [5]","Shortening Rates, Percent Change [5]","Growing Rates, Percent Change [5]","Percent Time Growing, Percent Change [5]",Growing Lengths [5],Shortening Lengths [5],other results
C=C1C[C@@H]2CC[C@@]34C[C@H]5O[C@H]6[C@@H](O3)[C@H]3O[C@H](CC[C@@H]3O[C@H]6[C@H]5O4)CC(=O)C[C@@H]3[C@@H](OC)[C@@H](C[C@H](O)CN)O[C@H]3C[C@H]3O[C@@H](CC[C@@H]1O2)C[C@@H](C)C3=C [eribulin],,,,,,,,,,,,,,,,,,,,,high affinity binding sites per microtubule [1]: 14.7 ±1.3
trastuzumab-DM1,,,,,,,,,,,,,,,,,,,,,interim overall response rate [2]: 39%
"COc1cc2cc(c1Cl)N(C)C(=O)C[C@H](OC(=O)[C@H](C)N(C)C(=O)CCC(C)(C)SC)[C@]1(C)O[C@H]1[C@H](C)[C@@H]1C[C@@](O)(NC(=O)O1)[C@H](OC)/C=C/C=C(\C)C2 [S-methyl DM4, N^2'-deacetyl-N^2'-(4-thiomethyl-4-methyl-1-oxopentyl)-maytansine]","aggregates as well as both normal and also some imperfect, ragged microtubules with loose protofilamentous structure",more extensive aggregation of tubulin occurred with no intact microtubules,73% and 73 (−) %,0.03 per min,0.35,80.6%,15.2%,4.2%,0.50 per min,30% and 30 (+) %,90% and 90 (−) %,16 (−) %,72 (−) %,50 (−) %,60% and 60 (−) %,56% and 56 (−) %,24 (−) %,34 (−) %,1.6 ± 0.1 μm/event,1.2 ± 0.2 μm/event,"reduction of microtubule polymer mass [3]: less than 3%; plateau inhibition of polymerization ([3]; between 10 μmol/L and 20 μmol/L): 75%; plateau of sedimentable polymer, % of the control polymer mass ([3]; between 10 and 20 μmol/L): 25%; concentrations inducing tubulin aggregates detectable by electron microscopy [4]: ≥ 2 µmol/L; Shortening Rates [5]: 3.9 ± 0.4 μm/min; Growing Rates [5]: 1.3 ± 0.3 μm/min"
CC[C@]1(O)C[C@@H]2CN(CCc3c([nH]c4ccccc34)[C@@](C(=O)OC)(c3cc4c(cc3OC)N(C)[C@H]3[C@@](O)(C(=O)OC)[C@H](OC(C)=O)[C@]5(CC)C=CCN6CC[C@]43[C@@H]65)C2)C1 [vinblastine],,,,,,,,,,,,,,,,,,,,,suppression of catastrophe frequency ([6]; 100 nmol/L): ~ 30%; suppression of growth rate ([6]; 100 nmol/L): 34%; suppression of shortening rate ([6]; 100 nmol/L): 47%; enhancement of rescue frequency [6]: ~ 200%; high affinity binding sites per microtubule [1]: 16.8 ± 4.3
"COc1cc2cc(c1Cl)N(C)C(=O)C[C@H](OC(=O)[C@H](C)N(C)C(=O)CCSC)[C@]1(C)O[C@H]1[C@H](C)[C@@H]1C[C@@](O)(NC(=O)O1)[C@H](OC)/C=C/C=C(\C)C2 [S-methyl DM1, N^2'-deacetyl-N^2'-(3-thiomethyl-1-oxopropyl)-maytansine]",a small number of small aggregates along with the microtubules,an increase in aggregate formation,84% and 84 (−) %,0.03 per min,0.21,87.4%,7.3%,5.4%,0.56 per min,41% and 41 (+) %,90% and 90 (−) %,47 (−) %,64 (−) %,44 (−) %,60% and 60 (−) %,70% and 70 (−) %,24 (−) %,70 (−) %,1 ± 0.1 μm/event,1.2 ± 0.2 μm/event,"reduction of microtubule polymer mass [3]: less than 3%; concentration showing nearly complete inhibition of microtubule polymerization ([3]; MTP 3 mg/mL, 30°C): 20 µmol/L; Kd ([7]; read-out: equilibrium dissociation constant (KD) for soluble tubulin, 3 μmol/L tubulin, PEM buffer, 45 min, 30°C): 930 nM and 900 nM; KD of low affinity sites, fold higher than high affinity sites [8]: 20 fold; binding to high affinity sites on microtubules, fold more strongly than vinblastine [8]: 20 fold and 19 fold; number of low affinity sites [8]: several hundred; molecules bound per microtubule ([8]; 0.1 μmol/L (100 nmol/L)): 19 ± 1 and 19; mean length of the microtubules ([8]; 500 nmol/L – 4 μmol/L, standard deviation 4.5 μm): 13.9–14.1 μm; molecules bound per microtubule or sedimentable aggregate ([8]; 1 μmol/L): approximately 105; molecules bound per microtubule or sedimentable aggregate ([8]; 4 μmol/L): 210 ± 37 and ~210; number of high affinity sites per microtubule ([8]; Scatchard X-intercept): 37; mean length of the microtubules ([8]; between 0 and 100 nmol/L, maximum standard deviation 4 μm): 14.4–14.5 μm; molecules bound to sedimentable polymer, per microtubule ([8]; concentrations ≥500 nmol/L): 60–210; decrease of microtubule polymer mass ([8]; pre-assembled MAP-rich microtubules, 1 h, any concentration (0 – 4 μM)): less than 4%; Kd ([8]; read-out: KD, high affinity sites on microtubules, low drug concentrations (10 nmol/L – 100 nmol/L)): 100 ± 50 nM; Kd ([8]; read-out: KD, low affinity sites on microtubules and sedimentable aggregates, higher drug concentrations (0.1 μmol/L to 4 μmol/L)): 2200 ± 200 nM; concentrations inducing tubulin aggregates detectable by electron microscopy [4]: ≥ 2 µmol/L; suppression of dynamicity (change) ([5]; 20 nmol/L, data not shown): ~ 6%; Shortening Rates [5]: 2.7 ± 0.9 μm/min; Growing Rates [5]: 1.3 ± 0.4 μm/min"
"COc1cc2cc(c1Cl)N(C)C(=O)C[C@H](OC(=O)[C@H](C)N(C)C(C)=O)[C@]1(C)O[C@H]1[C@H](C)[C@@H]1C[C@@](O)(NC(=O)O1)[C@H](OC)/C=C/C=C(\C)C2 [Maytansine, reference compound]",very few microtubules and no aggregates,no microtubules or aggregates,45 (−) %,0.21 per min,0.72,65%,24%,11%,0.60 per min,5 (+) %,30 (−) %,37 (−) %,26 (−) %,40% and 40 (−) %,40 (−) %,35% and 35 (−) %,35% and 35 (−) %,3.4 (+) %,1.2 ± 0.1 μm/event,1.8 ± 0.9 μm/event,"Kd [9]: 700 nM; inhibition at 0.1 µM ([3]; read-out: reduction of microtubule polymer mass): 20%; Kd [7]: 860 ± 200 nM; Dynamicity, Percent Change (suppression of dynamic instability) ([5]; listed as maytansine): 45%; Percent Time Attenuated (pause), Percent Change ([5]; listed as maytansine): negligible effect; Catastrophe Frequency, Percent Change ([5]; listed as maytansine): 30%; Shortening Lengths, Percent Change ([5]; listed as maytansine): 40%; Shortening Rates [5]: 5.8 ± 0.5 μm/min; Growing Rates [5]: 1.1 ± 0.2 μm/min"
